Among the data in US12606533B2, “3-phenylpropylamine derivative” (DAIICHI SANKYO COMPANY, LIMITED, priority 2023, dated 2026) are DC50 and GI50 values, retold here.

For experiment [1], the target named is T1, SF-1 (Homo sapiens, UniProt Q13285).
T1 construct: NCI-H295R SF-1-HiBiT cells with HiBiT tag knocked in at the endogenous SF1 locus; host or cells: NCI-H295R SF-1-HiBiT (knock-in at endogenous locus)
The experiment can be described thus: SF1 degradation induction in NCI-H295R SF-1-HiBiT cells (HiBiT DC50). The experiment is classed as cell-based. As to conditions: 24 hr, concentration that induces 50% degradation of SF-1. The protocol: NCI-H295R SF-1-HiBiT cells were seeded in a 384-well plate (Thermo Fisher Scientific Inc.) at 1×10^4 cells/50 μL/well and cultured at 37° C. in a 5% CO2 incubator for 24 hr. DMSO solutions of each compound were serially diluted with DMSO using a D300e Digital Dispenser (TECAN), added to a 384-well plate, and cultured in a 5% CO2 incubator at 37° C. for 24 hr. […] After completion of culture, the medium was discarded, and Nano-Glo (registered trade mark) HiBiT Lytic Detection System (Promega, Cat. No. N3040) was added at 20 μL/well and stirred with a plate mixer. Luminescence signals were then detected using a multimode plate reader (EnVision Xcite, PerkinElmer). The SF-1 protein degradation rate was calculated from the amount of luminescence (C) in the compound-free group and the amount of luminescence (T) in the compound-added group, based on the following formula.
The obtained data was analyzed using GraphPad Prism9 (GraphPad Software Inc.) or Genedata Screener (Genedata AG) to calculate the concentration that induces 50% degradation of SF-1 (DC50 value).
(With HiBiT, luminescence reflects the tagged protein that the partner subunit can reach.)

Experiment [2] concerns NCI-H295R cells. The experiment in a line: Proliferation inhibitory action on NCI-H295R (CellTiter-Glo, 7 days). It counts as cell-based, human. As to conditions: Homo sapiens, NCI-H295R, 168 h. As to the method: DMSO solutions of each compound were serially diluted with DMSO using a D300e Digital Dispenser (TECAN), and added to a 384-well plate (Thermo Fisher Scientific Inc.). NCI-H295R cells were seeded in a 384-well plate at 2×10^3 cells/40 μL/well and cultured for 7 days in a 37° C., 5% CO2 incubator. […] On the first day of culture (day 0) and the seventh day of culture (day 7), 10 μL/well of CellTiter-Glo (registered trademark) 2.0 Assay (Promega) was added, and the luminescence signal was detected using a multimode plate reader (EnVision, PerkinElmer). The cell proliferation rate was calculated from the luminescence amount on the day of compound addition (CO), the luminescence amount of the compound-free group after 7 days of culture (C7), and the luminescence amount of the compound-added group (T7), based on the following formula.
In general terms: ATP-based viability assays read luminescence as a measure of living cells.

As for `COc1ccc([C@]2(CCN(Cc3ccc(C4=CC[C@H](CN5CCN(C(=O)c6ccc7c8c6CCCn8c(=O)n7[C@@H]6CCC(=O)NC6=O)CC5)CC4)cc3)CC(C)(C)C(F)(F)F)CCOC(C)(C)C2)cc1` [BG5, (3R)-3-{7-[(4-{[(4R)-4′-{[{2-[(4R)-4-(4-Methoxyphenyl)-2,2-dimethyltetrahydro-2H-pyran-4-yl]ethyl}(3,3,3-trifluoro-2,2-dimethylpropyl)amino]methyl}-2,3,4,5-tetrahydro[biphenyl]-4-yl]methyl}piperazin-1-yl)carbonyl]-2-oxo-5,6-dihydro-4H-imidazo[4,5,1-ij]quinolin-1(2H)-yl}piperidine-2,6-dione], the DC50 in experiment [1] was found to be 0.0092 µM. The molecule also came in with a GI50 in experiment [2] of 0.084 µM.
In the same order, the values of `COc1ccc([C@]2(CCN(Cc3ccc(C4=CCC(C(=O)N5CCC(N(C)c6ccc7c8c6CCCn8c(=O)n7C6CCC(=O)NC6=O)CC5)CC4)c(F)c3)CC(C)(C)C(F)(F)F)CCOC(C)(C)C2)cc1` (stereo partly drawn) [BH5, 3-{7-[{1-[(2′-Fluoro-4′-{[{2-[(4R)-4-(4-methoxyphenyl)-2,2-dimethyltetrahydro-2H-pyran-4-yl]ethyl}(3,3,3-trifluoro-2,2-dimethylpropyl)amino]methyl}-2,3,4,5-tetrahydro[biphenyl]-4-yl)carbonyl]piperidin-4-yl}(methyl)amino]-2-oxo-5,6-dihydro-4H-imidazo[4,5,1-ij]quinolin-1(2H)-yl}piperidine-2,6-dione] are 0.0077 µM and 0.079 µM.
Molecule `COc1ccc([C@]2(CCN(Cc3ccc(C4=CC[C@H](CN5CCN(C(=O)c6ccc7c(c6)n(C)c(=O)n7C6CCC(=O)NC6=O)CC5)CC4)cc3)CC(C)(C)C(F)(F)F)CCOC(C)(C)C2)cc1` (stereo partly drawn) [BI2, 3-{5-[(4-{[(4R)-4′-{[{2-[(4R)-4-(4-Methoxyphenyl)-2,2-dimethyltetrahydro-2H-pyran-4-yl]ethyl)(3,3,3-trifluoro-2,2-dimethylpropyl)amino]methyl}-2,3,4,5-tetrahydro[biphenyl]-4-yl]methyl}piperazin-1-yl)carbonyl]-3-methyl-2-oxo-2,3-dihydro-1H-benzimidazol-1-yl}piperidine-2,6-dione] had a DC50 in experiment [1] of 0.011 µM. The molecule further yielded a GI50 in experiment [2] of 0.079 µM.
`COc1ccc([C@]2(CCN(Cc3ccc(C4=CCC(CN5CCN(C(=O)c6cc7c(cn6)n(C6CCC(=O)NC6=O)c(=O)n7C)CC5)CC4)cc3)CC(C)(C)C(F)(F)F)CCOC(C)(C)C2)cc1` (stereo partly drawn) [BJ6, 3-[6-({4-[(4′-{[{2-[(4R)-4-(4-Methoxyphenyl)-2,2-dimethyltetrahydro-2H-pyran-4-yl]ethyl}(3,3,3-trifluoro-2,2-dimethylpropyl)amino]methyl}-2,3,4,5-tetrahydro[biphenyl]-4-yl)methyl]piperazin-1-yl}carbonyl)-1-methyl-2-oxo-1,2-dihydro-3H-imidazo[4,5-c]pyridin-3-yl]piperidine-2,6-dione] had a DC50 in experiment [1] of 0.017 µM. Moreover, in experiment [2], halving of growth (GI50) required 0.097 µM.
For `COc1ccc([C@]2(CCN(Cc3ccc(C4=CC[C@@H](C(=O)N5CCC(Nc6ccc7c8c6CCCn8c(=O)n7C6CCC(=O)NC6=O)CC5)CC4)c(F)c3)CC(C)(C)C(F)(F)F)CCOC(C)(C)C2)cc1` (stereo partly drawn) [BL4, 3-{7-[(1-{[(4S)-2′-Fluoro-4′-{[{2-[(4R)-4-(4-methoxyphenyl)-2,2-dimethyltetrahydro-2H-pyran-4-yl]ethyl)(3,3,3-trifluoro-2,2-dimethylpropyl)amino]methyl}-2,3,4,5-tetrahydro[biphenyl]-4-yl]carbonyl}piperidin-4-yl)amino]-2-oxo-5,6-dihydro-4H-imidazo[4,5,1-ij]quinolin-1(2H)-yl}piperidine-2,6-dione], in experiment [1], the DC50 came to 0.0031 µM. This molecule also showed a GI50 in experiment [2] of 0.043 µM.
`COc1ccc([C@]2(CCN(Cc3ccc(C4=CC[C@H](C(=O)N5CCC(Nc6ccc7c8c6OCCn8c(=O)n7C6CCC(=O)NC6=O)CC5)CC4)c(F)c3)CC(C)(C)C(F)(F)F)CCOC(C)(C)C2)cc1` (stereo partly drawn) [BM10, 3-{7-[(1-{[(4R)-2′-Fluoro-4′-{[{2-[(4R)-4-(4-methoxyphenyl)-2,2-dimethyltetrahydro-2H-pyran-4-yl]ethyl)(3,3,3-trifluoro-2,2-dimethylpropyl)amino]methyl}-2,3,4,5-tetrahydro[biphenyl]-4-yl]carbonyl}piperidin-4-yl)amino]-2-oxo-4,5-dihydroimidazo[1,5,4-de][1,4]benzoxazin-1(2H)-yl}piperidine-2,6-dione] gave a DC50 in experiment [1] of 0.0022 µM. The same molecule came in with a GI50 in experiment [2] of 0.022 µM.
`COc1ccc([C@]2(CCN(Cc3ccc(C4=CC[C@@H](C(=O)N5CCC(Nc6ccc7c8c6OCCn8c(=O)n7C6CCC(=O)NC6=O)CC5)CC4)c(F)c3)CC(C)(C)C(F)(F)F)CCOC(C)(C)C2)cc1` (stereo partly drawn) [BN2, 3-{7-[(1-{[(4S)-2′-Fluoro-4′-{[{2-[(4R)-4-(4-methoxyphenyl)-2,2-dimethyltetrahydro-2H-pyran-4-yl]ethyl}(3,3,3-trifluoro-2,2-dimethylpropyl)amino]methyl}-2,3,4,5-tetrahydro[biphenyl]-4-yl]carbonyl}piperidin-4-yl)amino]-2-oxo-4,5-dihydroimidazo[1,5,4-de][1,4]benzoxazin-1(2H)-yl}piperidine-2,6-dione] displayed a DC50 in experiment [1] of 0.0023 µM. For the same molecule, halving of growth in experiment [2] (GI50) required 0.031 µM.
`COc1ccc([C@]2(CCN(Cc3ccc(C4=CC[C@H](C(=O)N5CCC(Nc6ccc7c(c6)CN(C6CCC(=O)NC6=O)C7=O)CC5)CC4)cc3)CC(C)(C)C(F)(F)F)CCOC(C)(C)C2)cc1` (stereo partly drawn) [BO4, 3-{5-[(1-{[(4R)-4′-{[{2-[(4R)-4-(4-Methoxyphenyl)-2,2-dimethyltetrahydro-2H-pyran-4-yl]ethyl)(3,3,3-trifluoro-2,2-dimethylpropyl)amino]methyl}-2,3,4,5-tetrahydro[biphenyl]-4-yl]carbonyl}piperidin-4-yl)amino]-1-oxo-1,3-dihydro-2H-isoindol-2-yl}piperidine-2,6-dione] yielded a DC50 in experiment [1] of 0.015 µM. The molecule further came in with a GI50 in experiment [2] of 0.129 µM.
For `COc1ccc([C@]2(CCN(Cc3ccc(C4=CC[C@H](C(=O)N5CCN(Cc6cc(F)c7c(c6)n(C)c(=O)n7C6CCC(=O)NC6=O)CC5)CC4)cc3)CC(C)(C)C(F)(F)F)CCOC(C)(C)C2)cc1` (stereo partly drawn) [BP6, 3-{7-Fluoro-5-[(4-{[(4R)-4′-{[{2-[(4R)-4-(4-methoxyphenyl)-2,2-dimethyltetrahydro-2H-pyran-4-yl]ethyl}(3,3,3-trifluoro-2,2-dimethylpropyl)amino]methyl}-2,3,4,5-tetrahydro[biphenyl]-4-yl]carbonyl}piperazin-1-yl)methyl]-3-methyl-2-oxo-2,3-dihydro-1H-benzimidazol-1-yl}piperidine-2,6-dione] the same measures were 0.012 µM and 0.071 µM.
`COc1ccc([C@]2(CCN(Cc3ccc(C4=CC[C@H](C(=O)N5CCN(Cc6ccc7c(c6)n(C)c(=O)n7C6CCC(=O)NC6=O)CC5)CC4)c(F)c3)CC(C)(C)C(F)(F)F)CCOC(C)(C)C2)cc1` (stereo partly drawn) [BQ4, 3-{5-[(4-{[(4R)-2′-Fluoro-4′-{[{2-[(4R)-4-(4-methoxyphenyl)-2,2-dimethyltetrahydro-2H-pyran-4-yl]ethyl}(3,3,3-trifluoro-2,2-dimethylpropyl)amino]methyl}-2,3,4,5-tetrahydro[biphenyl]-4-yl]carbonyl}piperazin-1-yl)methyl]-3-methyl-2-oxo-2,3-dihydro-1H-benzimidazol-1-yl}piperidine-2,6-dione] registered a DC50 in experiment [1] of 0.0045 µM. The GI50 in experiment [2] stood at 0.028 µM.
In experiment [1], `COc1ccc([C@]2(CCN(Cc3ccc(C4=CC[C@H](C(=O)N5CCC(Nc6ccc7c(c6)n(C)c(=O)n7C6CCC(=O)NC6=O)CC5)CC4)c(F)c3)CC(C)(C)C(F)(F)F)CCOC(C)(C)C2)cc1` (stereo partly drawn) [BR3, 3-{5-[(1-{[(4R)-2′-Fluoro-4′-{[{2-[(4R)-4-(4-methoxyphenyl)-2,2-dimethyltetrahydro-2H-pyran-4-yl]ethyl)(3,3,3-trifluoro-2,2-dimethylpropyl)amino]methyl}-2,3,4,5-tetrahydro[biphenyl]-4-yl]carbonyl}piperidin-4-yl)amino]-3-methyl-2-oxo-2,3-dihydro-1H-benzimidazol-1-yl}piperidine-2,6-dione] came in with a DC50 of 0.0022 µM. For the same molecule, growth in experiment [2] was halved (GI50) at 0.023 µM.
Molecule `COc1ccc([C@]2(CCN(Cc3ccc(C4=CC[C@H](C(=O)N5CCC(Nc6ccc7c(c6)C(=O)N(C6CCC(=O)NC6=O)C7)CC5)CC4)cc3)CC(C)(C)C(F)(F)F)CCOC(C)(C)C2)cc1` (stereo partly drawn) [BS3, 3-{6-[(1-{[(4R)-4′-{[{2-[(4R)-4-(4-Methoxyphenyl)-2,2-dimethyltetrahydro-2H-pyran-4-yl]ethyl)(3,3,3-trifluoro-2,2-dimethylpropyl)amino]methyl}-2,3,4,5-tetrahydro[biphenyl]-4-yl]carbonyl}piperidin-4-yl)amino]-1-oxo-1,3-dihydro-2H-isoindol-2-yl}piperidine-2,6-dione] gave a DC50 in experiment [1] of 0.014 µM. The GI50 in experiment [2] came out at 0.07 µM.

Broadly, the DC50 is the concentration at which degradation of the target reaches its halfway point. One may read the GI50 as the concentration giving 50% growth inhibition.
